Tests used:
[1] = tested on: Human immunodeficiency virus 2; experiment: Antiviral activity against wild type HIV2 ROD infected in human MT4 cells assessed as reduction of virus-induced cytopathic effect after 5 days by MTT assay; type: functional, organism-based; conditions: Human immunodeficiency virus 2, ISOLATE ROD, MT4, 120 h
[2] = tested on: Human immunodeficiency virus 1; experiment: Antiviral activity against wild type HIV1 3B infected in human MT4 cells assessed as reduction of virus-induced cytopathic effect after 5 days by MTT assay; type: functional, organism-based; conditions: Human immunodeficiency virus 1, 3B, MT4, 120 h
[3] = Cytotoxicity against human MT4 cells assessed as reduction in viability of mock infected cells after 5 days MTT assay; type: cell-based
[4] = Selectivity index, ratio of CC50 for human MT4 cells to EC50 for wild type HIV1 3B infected in human MT4 cells; type: toxicity, cell-based; conditions: read-out: Ratio CC50/EC50
[5] = Selectivity index, ratio of CC50 for human MT4 cells to EC50 for wild type HIV2 ROD infected in human MT4 cells; type: toxicity, cell-based; conditions: read-out: Ratio CC50/EC50
[6] = tested on: Human immunodeficiency virus 1; experiment: Antiviral activity against HIV1 3B expressing reverse transcriptase L100I mutant infected in human MT4 cells assessed as reduction of virus-induced cytopathic effect after 5 days by MTT assay; type: functional, organism-based; conditions: Human immunodeficiency virus 1, 3B, MT4, 120 h
[7] = tested on: Human immunodeficiency virus 1; experiment: Antiviral activity against HIV1 […] expressing reverse transcriptase F227L/V106A double mutant infected in human MT4 cells assessed as reduction of virus-induced cytopathic effect after 5 days by MTT assay; type: functional, organism-based; conditions: Human immunodeficiency virus 1, MT4, 120 h
[8] = tested on: Human immunodeficiency virus 1; experiment: Antiviral activity against HIV1 3B expressing reverse transcriptase Y181C mutant infected in human MT4 cells assessed as reduction of virus-induced cytopathic effect after 5 days by MTT assay; type: functional, organism-based; conditions: Human immunodeficiency virus 1, 3B, MT4, 120 h
[9] = tested on: Human immunodeficiency virus 1; experiment: Antiviral activity against HIV1 3B expressing reverse transcriptase E138K mutant infected in human MT4 cells assessed as reduction of virus-induced cytopathic effect after 5 days by MTT assay; type: functional, organism-based; conditions: Human immunodeficiency virus 1, 3B, MT4, 120 h
[10] = tested on: Human immunodeficiency virus 1; experiment: Antiviral activity against HIV1 RES056 infected in human MT4 cells assessed as reduction of virus-induced cytopathic effect after 5 days by MTT assay; type: functional, organism-based; conditions: Human immunodeficiency virus 1, RES056, MT4, 120 h
[11] = tested on: Human immunodeficiency virus 1; experiment: Antiviral activity against HIV1 3B expressing reverse transcriptase Y188L mutant infected in human MT4 cells assessed as reduction of virus-induced cytopathic effect after 5 days by MTT assay; type: functional, organism-based; conditions: Human immunodeficiency virus 1, 3B, MT4, 120 h
[12] = tested on: Human immunodeficiency virus 1; experiment: Antiviral activity against HIV1 3B expressing reverse transcriptase K103N mutant infected in human MT4 cells assessed as reduction of virus-induced cytopathic effect after 5 days by MTT assay; type: functional, organism-based; conditions: Human immunodeficiency virus 1, 3B, MT4, 120 h
[13] = tested on: Human immunodeficiency virus 1; experiment: Potency index, ratio of efavirenz EC50 to compound EC50 for antiviral activity against HIV1 3B expressing reverse transcriptase K103N mutant infected in human MT4 cells; type: functional
[14] = tested on: Human immunodeficiency virus 1; experiment: Potency index, ratio of delavirdine EC50 to compound EC50 for antiviral activity against HIV1 3B expressing reverse transcriptase K103N mutant infected in human MT4 cells; type: functional
[15] = tested on: Human immunodeficiency virus 1; experiment: Potency index, ratio of nevirapine EC50 to compound EC50 for antiviral activity against HIV1 3B expressing reverse transcriptase K103N mutant infected in human MT4 cells; type: functional
[16] = molecular target: Human immunodeficiency virus type 1 reverse transcriptase (Human immunodeficiency virus 1, UniProt Q72547); experiment: Inhibition of HIV1 reverse transcriptase assessed as reduction in biotin-dUTP incorporation using poly(rA)-oligo(dT) as template/primer and digoxigenin-dUTP/biotin-dUTP/dTTP nucleotides incubated for 1 hr by ELISA

IC50 [16] [nM] | Compound | EC50 [1] [nM] | EC50 [2] [nM] | CC50 at 120 h [3] [nM] | selectivity ratio [4] | selectivity ratio [5] | EC50 [6] [nM] | EC50 [7] [nM] | EC50 [8] [nM] | EC50 [9] [nM] | EC50 [10] [nM] | EC50 [11] [nM] | EC50 [12] [nM] | Ratio EC50 [13] | Ratio EC50 [14] | Ratio EC50 [15]
 | Cc1cc(C#N)cc(C)c1Oc1cc(NCC2CC2)nc(Nc2ccc(C#N)cc2)c1 | > 125000 | 1520 | > 305000 | > 201 | < 1 |  |  |  |  |  |  |  |  |  | 
 | Cc1cc(C)c(Oc2cc(NCCN3CCOCC3)nc(Nc3ccc(C#N)cc3)c2)c(C)c1 | > 11100 | 72 | 24300 | 339 | < 1 | 5800 | 4520 | 4930 | 4590 | 8310 | 9450 | 140 |  |  | 
 | Cc1cc(C#N)cc(C)c1Oc1cc(NCCC#N)nc(Nc2ccc(C#N)cc2)c1 | > 3210 | 100 | 7850 | 75 | < 1 | 1340 | > 7850 | > 7850 | 940 | 11100 | > 7850 | 180 |  |  | 
 | Cc1cc(C#N)cc(C)c1Oc1cc(Nc2ccc(C#N)cc2)nc(NC2CC2)c1 | > 4060 | 220 | 10300 | 47 | < 1 |  |  |  |  |  |  |  |  |  | 
 | Cc1cc(C)c(Oc2cc(NCCN3CCNCC3)nc(Nc3ccc(C#N)cc3)c2)c(C)c1 | > 1650 | 710 | 3610 | 5 | < 1 |  |  |  |  |  |  |  |  |  | 
 | Cc1cc(C#N)cc(C)c1Oc1cc(NCCN2CCOCC2)nc(Nc2ccc(C#N)cc2)c1 | > 17400 | 82 | 37200 | 451 | < 1 | 8460 | 6040 | 7550 | 6410 | 4720 | 8100 | 49 | 3 | 50 | 140
 | COCCNc1cc(Oc2c(C)cc(C#N)cc2C)cc(Nc2ccc(C#N)cc2)n1 | > 40700 | 250 | ≥ 98500 | ≥ 394 | < 1 |  |  |  |  |  |  |  |  |  | 
 | COC(CNc1cc(Oc2c(C)cc(C)cc2C)cc(Nc2ccc(C#N)cc2)n1)OC | > 14500 | 1630 | 33500 | 21 | < 1 |  |  |  |  |  |  |  |  |  | 
 | Cc1cc(C)c(Oc2cc(NCCN(C)C)nc(Nc3ccc(C#N)cc3)c2)c(C)c1 | > 1940 | 43 | 4670 | 109 | < 1 |  |  |  |  |  |  |  |  |  | 
 | COC(CNc1cc(Oc2c(C)cc(C#N)cc2C)cc(Nc2ccc(C#N)cc2)n1)OC | > 125000 | 840 | > 282000 | > 335 | < 1 |  |  |  |  |  |  |  |  |  | 
 | Cc1cc(C)c(Oc2cc(NCCC#N)nc(Nc3ccc(C#N)cc3)c2)c(C)c1 | > 2100 | 240 | 5300 | 22 | < 1 |  |  |  |  |  |  |  |  |  | 
 | Cc1cc(C)c(Oc2cc(NCC3CC3)nc(Nc3ccc(C#N)cc3)c2)c(C)c1 | > 13100 | 1990 | 32900 | 17 | < 1 |  |  |  |  |  |  |  |  |  | 
 | Cc1cc(C)c(Oc2cc(Nc3ccc(C#N)cc3)nc(NC3CC3)c2)c(C)c1 | > 2580 | 35 | 6710 | 190 | < 1 |  |  |  |  |  |  |  |  |  | 
 | Cc1cc(C#N)cc(C)c1Oc1cc(NCCN2CCNCC2)nc(Nc2ccc(C#N)cc2)c1 | > 2070 | 430 | 4430 | 10 | < 1 |  |  |  |  |  |  |  |  |  | 
 | Cc1cc(C)c(Oc2cc(NCC3CCCO3)nc(Nc3ccc(C#N)cc3)c2)c(C)c1 (centres undefined) | > 125000 | 1790 | > 292000 | > 163 | < 1 |  |  |  |  |  |  |  |  |  | 
 | Cc1cc(C#N)cc(C)c1Oc1cc(Cl)nc(Nc2ccc(C#N)cc2)c1 | > 8550 | 840 | 22900 | 27 | < 1 |  |  |  |  |  |  |  |  |  | 
 | COCCNc1cc(Oc2c(C)cc(C)cc2C)cc(Nc2ccc(C#N)cc2)n1 | > 22900 | 870 | 56600 | 65 | < 1 |  |  |  |  |  |  |  |  |  | 
3400 | Cc1cc(C#N)cc(C)c1Oc1cc(NCCN(C)C)nc(Nc2ccc(C#N)cc2)c1 | > 1990 | 41 | 4670 | 114 | < 1 |  |  |  |  |  |  |  |  |  | 
 | Cc1cc(C#N)cc(C)c1Oc1cc(NCC2CCCO2)nc(Nc2ccc(C#N)cc2)c1 (centres undefined) | > 125000 | 1320 | > 285000 | > 216 | < 1 |  |  |  |  |  |  |  |  |  | 
 | C=CCNc1cc(Oc2c(C)cc(C#N)cc2C)cc(Nc2ccc(C#N)cc2)n1 | > 8770 | 400 | 22200 | 55 | < 1 |  |  |  |  |  |  |  |  |  | 
 | Cc1cc(C)c(Oc2cc(Cl)nc(Nc3ccc(C#N)cc3)c2)c(C)c1 | > 2030 | 370 | 5590 | 15 | < 1 |  |  |  |  |  |  |  |  |  | 
 | C=CCNc1cc(Oc2c(C)cc(C)cc2C)cc(Nc2ccc(C#N)cc2)n1 | > 9330 | 700 | 24300 | 35 | < 1 |  |  |  |  |  |  |  |  |  | 
 | CC(C)Nc1cccnc1N1CCN(C(=O)c2cc3cc(NS(C)(=O)=O)ccc3[nH]2)CC1 [DELAVIRDINE] |  | 33 |  | 30.4 | 733 | 2100 | 1870 | 2030 | 43 |  | 690 | 2480 |  |  | 
 | O=C1Nc2ccc(Cl)cc2[C@@](C#CC2CC2)(C(F)(F)F)O1 [EFAVIRENZ] |  |  |  |  |  | 100 | 210 | 6.8 |  |  | 340 |  |  |  | 
 | Cc1cc(C#N)cc(C)c1Oc1nc(Nc2ccc(C#N)cc2)nc(N)c1Br [ETRAVIRINE] |  | 3.5 |  |  |  | 6.6 |  |  |  |  | 22 | 3.2 |  |  | 
 | Cc1ccnc2c1NC(=O)c1cccnc1N2C1CC1 [NEVIRAPINE] |  | 260 |  |  |  | 830 |  |  |  |  | 9610 |  |  |  | 
 | Cc1cn([C@H]2C[C@H](N=[N+]=[N-])[C@@H](CO)O2)c(=O)[nH]c1=O [ZIDOVUDINE] |  | 6.7 |  | > 7.06 | > 1050 | 5.2 | 4.8 | 7.1 | 13 |  | 11 | 8.3 |  |  | 

Source: ChEMBL document CHEMBL3758129, “Design, synthesis and anti-HIV evaluation of novel diarylpyridine derivatives targeting the entrance channel of NNRTI binding pocket” (Eur J Med Chem, 2016)
